Assay results published in US10829520B2, “Beta-hairpin peptidomimetics” (POLYPHOR AG, priority 2015, dated 2020).
Where a SMILES comes first, the peptide text is derived from it. Bridges are numbered along the chain shown (N, C = ends). [ ]: non-standard residue; d: D form. Pro(trans-4-F) = O=C(O)[C@@H]1C[C@@H](F)CN1; Hyp = O=C(O)[C@@H]1C[C@@H](O)CN1; Pen = CC(C)(S)[C@H](N)C(=O)O; Dab = NCC[C@H](N)C(=O)O

Legend:
Assay type in all cases: cell-based
[1] = tested on: human red blood cells (hRBC); experiment: Hemolysis of human red blood cells; conditions: red cells of human, 1 h, 100 μg/mL
Procedure, shortened: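 Percent lysis of washed human erythrocytes after 1 h at 37° C. with 100 μg/mL peptide, calculated from OD540 of 8-fold diluted supernatant as a fraction of the 2.5% Triton X-100 value.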

[2] = tested on: Acinetobacter baumannii DSM 30008; conditions: DSM 30008
Procedure, shortened: (§1)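 Broth microdilution per CLSI, cation-adjusted MH-II medium, 0.002% (v/v) polysorbate 80 final. Approx. 10^6 CFU/mL inoculum, incubated 35° C for 18-20 h; MIC read as absence of visible growth.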

[3] = tested on: Escherichia coli ATCC 25922; conditions: ATCC 25922
Procedure, shortened: as §1

[4] = tested on: Pseudomonas aeruginosa ATCC 27853; conditions: ATCC 27853
Procedure, shortened: as §1

[5] = tested on: Acinetobacter baumannii 872842; conditions: 872842
[6] = tested on: Escherichia coli 926415; conditions: 926415
[7] = tested on: Klebsiella pneumoniae 968733; conditions: 968733
[8] = tested on: Klebsiella pneumoniae SSI #3010; conditions: SSI #3010
Procedure, shortened: as §1

Row | Compound | Hemolysis at 100 μg/mL [1] | Acinetobacter baumannii DSM 30008 MIC [2] | Escherichia coli ATCC 25922 MIC [3] | Pseudomonas aeruginosa ATCC 27853 MIC [4] | Acinetobacter baumannii 872842 MIC [5] | Escherichia coli 926415 MIC [6] | Klebsiella pneumoniae 968733 MIC [7] | Klebsiella pneumoniae SSI #3010 MIC [8]
1 | CC(C)C[C@@H]1NC(=O)[C@@H](CC(C)C)NC(=O)[C@H](CCN)NC(=O)[C@@H](NC(=O)[C@H](CCN)NC(=O)[C@@H](NC(=O)[C@H](CCN)NC(=O)[C@H](CCN)NC(=O)[C@H]2NC(=O)[C@H](Cc3ccc(O)cc3)NC(=O)[C@H](CO)NC(=O)[C@H](CC(C)C)NC(=O)[C@@H]3CCCN3C(=O)[C@H]3CCCN3C(=O)[C@H](CO)NC(=O)[C@H](C)NC(=O)[C@H](C(C)C)NC(=O)[C@@H](NC(=O)[C@@H](N)Cc3c[nH]c4ccccc34)C(C)(C)SSC2(C)C)[C@@H](C)O)CCNC(=O)[C@H]([C@@H](C)O)NC(=O)[C@H](CCN)NC(=O)[C@H](CCN)NC1=O [Ex. 122] (H-W[Pen]VAS[dP]PLSY[Pen][Dab][Dab]T[Dab][Dab][Dab][dL]L[Dab][Dab]T; disulfide 2-11; lactam 16-C) | 2% | 0.125 µg/mL | 0.0625 µg/mL | 0.5 µg/mL | 0.03125 µg/mL | 0.25 µg/mL | 1 µg/mL | 0.5 µg/mL
2 | CC(C)C[C@@H]1NC(=O)[C@@H](CC(C)C)NC(=O)[C@H](CCN)NC(=O)[C@@H](NC(=O)[C@H](CCN)NC(=O)[C@@H](NC(=O)[C@H](CCN)NC(=O)[C@H](CCN)NC(=O)[C@@H]2CSSC[C@H](NC(=O)[C@@H](N)Cc3c[nH]c4ccccc34)C(=O)N[C@@H](C(C)C)C(=O)N[C@@H](C)C(=O)N[C@@H](CO)C(=O)N3CCC[C@@H]3C(=O)N3C[C@H](O)C[C@H]3C(=O)N[C@@H](CC(C)C)C(=O)N[C@@H](CO)C(=O)N[C@@H](Cc3ccc(O)cc3)C(=O)N2)[C@@H](C)O)CCNC(=O)[C@H]([C@@H](C)O)NC(=O)[C@H](CCN)NC(=O)[C@H](CCN)NC1=O [Ex. 123] (H-WCVAS[dP][Hyp]LSYC[Dab][Dab]T[Dab][Dab][Dab][dL]L[Dab][Dab]T; disulfide 2-11; lactam 16-C) | <1% | 0.25 µg/mL | 0.125 µg/mL | 1 µg/mL | 0.0625 µg/mL | 0.25 µg/mL | 4 µg/mL | 0.125 µg/mL
3 | CC(C)C[C@@H]1NC(=O)[C@@H](CC(C)C)NC(=O)[C@H](CCN)NC(=O)[C@@H](NC(=O)[C@H](CCN)NC(=O)[C@@H](NC(=O)[C@H](CCN)NC(=O)[C@H](CCN)NC(=O)[C@@H]2CSSC[C@H](NC(=O)[C@@H](N)Cc3c[nH]c4ccccc34)C(=O)N[C@@H](C(C)C)C(=O)N[C@@H](C)C(=O)N[C@@H](CO)C(=O)N3CCC[C@@H]3C(=O)N3C[C@H](F)C[C@H]3C(=O)N[C@@H](CC(C)C)C(=O)N[C@@H](CO)C(=O)N[C@@H](Cc3ccc(O)cc3)C(=O)N2)[C@@H](C)O)CCNC(=O)[C@H]([C@@H](C)O)NC(=O)[C@H](CCN)NC(=O)[C@H](CCN)NC1=O [Ex. 124] (H-WCVAS[dP][Pro(trans-4-F)]LSYC[Dab][Dab]T[Dab][Dab][Dab][dL]L[Dab][Dab]T; disulfide 2-11; lactam 16-C) | 1% | 0.125 µg/mL | 0.0625 µg/mL | 0.5 µg/mL | 0.25 µg/mL | 0.125 µg/mL | 0.5 µg/mL | 0.125 µg/mL
4 | CC(C)C[C@@H]1NC(=O)[C@H](C)NC(=O)[C@H]2CCCN2C(=O)[C@H](CO)NC(=O)[C@H](C)NC(=O)[C@H](C(C)C)NC(=O)[C@@H](NC(=O)[C@@H](N)Cc2c[nH]c3ccccc23)CSSC[C@@H](C(=O)N[C@@H](CCN)C(=O)N[C@@H](CCN)C(=O)N[C@H](C(=O)N[C@@H](CCN)C(=O)N[C@H]2CCNC(=O)[C@H]([C@@H](C)O)NC(=O)[C@H](CCN)NC(=O)[C@H](CCN)NC(=O)[C@H](CC(C)C)NC(=O)[C@@H](CC(C)C)NC(=O)[C@H](CCN)NC2=O)[C@@H](C)O)NC(=O)[C@H](Cc2ccc(O)cc2)NC(=O)[C@H](CO)NC1=O [Ex. 125] (H-WCVAS[dP]ALSYC[Dab][Dab]T[Dab][Dab][Dab][dL]L[Dab][Dab]T; disulfide 2-11; lactam 16-C) | 1% | 0.125 µg/mL | 0.0625 µg/mL | 0.5 µg/mL | 0.0625 µg/mL | 0.25 µg/mL | 1 µg/mL | 0.125 µg/mL
5 | CC(C)C[C@@H]1NC(=O)[C@H]([C@@H](C)O)NC(=O)[C@H]2CCCN2C(=O)[C@H](CO)NC(=O)[C@H](C)NC(=O)[C@H](C(C)C)NC(=O)[C@@H](NC(=O)[C@@H](N)Cc2c[nH]c3ccccc23)CSSC[C@@H](C(=O)NCC(=O)N[C@@H](CCN)C(=O)N[C@H](C(=O)N[C@@H](CCN)C(=O)N[C@H]2CCNC(=O)[C@H]([C@@H](C)O)NC(=O)[C@H](CCN)NC(=O)[C@H](CCN)NC(=O)[C@H](CC(C)C)NC(=O)[C@@H](CC(C)C)NC(=O)[C@H](CCN)NC2=O)[C@@H](C)O)NC(=O)[C@H](Cc2ccc(O)cc2)NC(=O)[C@H](CO)NC1=O [Ex. 126] (H-WCVAS[dP]TLSYCG[Dab]T[Dab][Dab][Dab][dL]L[Dab][Dab]T; disulfide 2-11; lactam 16-C) | 1% | 0.0625 µg/mL | 0.0625 µg/mL | 0.5 µg/mL | 0.125 µg/mL | 0.5 µg/mL | 0.5 µg/mL | 0.0625 µg/mL
6 | CC(C)C[C@@H]1NC(=O)[C@H](CCN)NC(=O)[C@H]2CCCN2C(=O)[C@H](CO)NC(=O)[C@H](C)NC(=O)[C@H](C(C)C)NC(=O)[C@@H](NC(=O)[C@@H](N)Cc2c[nH]c3ccccc23)CSSC[C@@H](C(=O)N[C@@H](CCN)C(=O)N[C@@H](CCN)C(=O)N[C@H](C(=O)N[C@@H](CCN)C(=O)N[C@H]2CCNC(=O)[C@H]([C@@H](C)O)NC(=O)[C@H](CCN)NC(=O)[C@H](CCN)NC(=O)[C@H](CC(C)C)NC(=O)[C@@H](CC(C)C)NC(=O)[C@H](CCN)NC2=O)[C@@H](C)O)NC(=O)[C@H](Cc2ccc(O)cc2)NC(=O)[C@H](CO)NC1=O [Ex. 127] (H-WCVAS[dP][Dab]LSYC[Dab][Dab]T[Dab][Dab][Dab][dL]L[Dab][Dab]T; disulfide 2-11; lactam 16-C) | 1% | 0.25 µg/mL | 1 µg/mL | 0.5 µg/mL | 0.25 µg/mL | 2 µg/mL | 8 µg/mL | 0.25 µg/mL
